Assay results reported in patent publication US20080182805A1, “O-GlcNAcase-specific inhibitor and substrate engineered by the extension of the N-Acetyl moiety” (The Gov. of the U.S.A., as represented by the Secretary, …, priority 2007, published 2008).

Assays:
O-GlcNAcase = target: T1, O-GlcNAcase (Homo sapiens, UniProt O60502); assay: Inhibition of O-GlcNAcase measured with nonselective fluorogenic substrate (3); assay type: biochemical; settings: fluorescence λex=485 nm, λem=535 nm
T1 construct: made in house
T1 sequence (O60502 1-916): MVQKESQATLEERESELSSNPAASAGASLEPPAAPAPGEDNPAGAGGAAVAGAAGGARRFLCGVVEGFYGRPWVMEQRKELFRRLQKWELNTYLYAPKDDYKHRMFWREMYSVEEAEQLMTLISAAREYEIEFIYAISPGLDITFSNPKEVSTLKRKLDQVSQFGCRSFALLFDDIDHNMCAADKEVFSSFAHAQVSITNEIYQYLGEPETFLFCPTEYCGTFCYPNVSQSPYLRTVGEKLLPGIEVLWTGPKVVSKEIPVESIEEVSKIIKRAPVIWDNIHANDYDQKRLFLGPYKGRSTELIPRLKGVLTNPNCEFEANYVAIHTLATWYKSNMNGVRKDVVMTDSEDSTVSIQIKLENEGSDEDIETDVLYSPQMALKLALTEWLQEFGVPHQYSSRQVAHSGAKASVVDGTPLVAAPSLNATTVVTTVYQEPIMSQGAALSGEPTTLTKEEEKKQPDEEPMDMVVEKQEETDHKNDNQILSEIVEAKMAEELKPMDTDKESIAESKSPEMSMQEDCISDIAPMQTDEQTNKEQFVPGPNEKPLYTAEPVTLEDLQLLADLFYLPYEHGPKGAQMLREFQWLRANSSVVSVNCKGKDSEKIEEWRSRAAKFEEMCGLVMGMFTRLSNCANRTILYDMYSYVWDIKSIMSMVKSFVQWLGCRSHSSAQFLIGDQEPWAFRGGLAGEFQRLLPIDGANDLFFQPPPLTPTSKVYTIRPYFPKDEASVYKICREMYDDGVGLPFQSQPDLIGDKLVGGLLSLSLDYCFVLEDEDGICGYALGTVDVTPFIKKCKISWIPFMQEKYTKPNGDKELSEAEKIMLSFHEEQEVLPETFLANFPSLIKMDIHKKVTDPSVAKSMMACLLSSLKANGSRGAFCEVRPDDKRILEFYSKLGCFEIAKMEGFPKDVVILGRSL
Description: (§1) The analysis of (2) was accomplished using previously reported methods.^9,11 For the determination of the inhibitory selectivity of both PUGNAc (1) and 2 at O-GlcNAcase, HEX A, and HEX B, the nonselective fluorogenic substrate (3) was utilized. The level of inhibition was determined based upon the quantification of fluorescence measured in the absence and presence of both PUGNAc (1) and (2) (intensity of fluorescence was measured at λex=485 nm at λem=535 nm). The results are compiled in FIG. 2. The analysis of (4) as a highly specific substrate for O-GlcNAcase activity was performed by the parallel treatment of O-GlcNAcase and HEX A with varying concentrations of (4) over a 45 min incubation period and the quantification of the resulting fluorescence. The results are compiled in FIG. 3.

HEX A = target: T2, HEX A (Homo sapiens, UniProt P06865+P07686); assay: Inhibition of HEX A measured with nonselective fluorogenic substrate (3); assay type: biochemical; settings: for inhibition of HEX A: fluorescence λex=485 nm, λem=535 nm
T2 sequence (P06865 89-529): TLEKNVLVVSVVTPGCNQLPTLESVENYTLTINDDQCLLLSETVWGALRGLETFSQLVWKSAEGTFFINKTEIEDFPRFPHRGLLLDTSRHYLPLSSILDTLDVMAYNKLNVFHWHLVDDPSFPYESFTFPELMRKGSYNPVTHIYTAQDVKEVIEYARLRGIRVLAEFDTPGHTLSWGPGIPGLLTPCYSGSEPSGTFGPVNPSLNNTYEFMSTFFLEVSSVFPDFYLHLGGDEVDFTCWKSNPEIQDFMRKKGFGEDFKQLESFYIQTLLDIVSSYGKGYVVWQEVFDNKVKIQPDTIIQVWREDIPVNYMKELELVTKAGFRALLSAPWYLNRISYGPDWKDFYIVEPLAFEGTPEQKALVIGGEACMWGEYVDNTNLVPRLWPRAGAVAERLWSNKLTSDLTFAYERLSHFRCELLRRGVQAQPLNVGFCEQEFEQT
T2 sequence (P07686 122-556): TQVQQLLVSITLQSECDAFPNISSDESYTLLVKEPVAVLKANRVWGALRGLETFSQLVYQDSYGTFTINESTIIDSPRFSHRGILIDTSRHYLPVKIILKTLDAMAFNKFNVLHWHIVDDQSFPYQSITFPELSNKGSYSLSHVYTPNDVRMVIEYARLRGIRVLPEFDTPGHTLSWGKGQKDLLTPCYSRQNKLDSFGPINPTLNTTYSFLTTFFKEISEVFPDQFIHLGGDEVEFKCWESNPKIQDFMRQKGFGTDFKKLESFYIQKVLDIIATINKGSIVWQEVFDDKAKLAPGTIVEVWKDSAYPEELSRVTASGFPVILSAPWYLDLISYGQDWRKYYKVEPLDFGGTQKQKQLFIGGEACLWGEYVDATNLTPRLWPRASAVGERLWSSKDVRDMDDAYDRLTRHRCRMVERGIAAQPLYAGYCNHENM
Description: as §1

HEX B = target: T3, HEX B (Homo sapiens, UniProt P07686); assay: Inhibition of HEX B measured with nonselective fluorogenic substrate (3); assay type: biochemical; settings: fluorescence λex=485 nm, λem=535 nm
T3 sequence (P07686 122-556): T2 sequence (P07686 122-556)
Description: as §1

fat cells = settings: cited from earlier work

Row | SMILES | inhibition of O-GlcNAcase (O-GlcNAcase) | inhibition of HEX A (HEX A) | inhibition of HEX B (HEX B) | effect on insulin resistance in fat cells (fat cells) | concentration up to which selectivity (no inhibition) was verified against HEX A (HEX A) [µM]
1 | CC(=O)N[C@H]1/C(=N/OC(=O)Nc2ccccc2)O[C@H](CO)[C@@H](O)[C@@H]1O [PUGNAc, O-(2-acet-amido-2-deoxy-D-glucopyranosylidene)amino-N-phenylcarbamate] | potently inhibit | potently inhibit | potently inhibit | induces insulin resistance | 
2 | CCCCC(=O)N[C@H]1/C(=N/OC(=O)Nc2ccccc2)O[C@H](CO)[C@@H](O)[C@@H]1O [compound 2] | slightly decreases the inhibitory potency | total loss of inhibitory activity | total loss of inhibitory activity |  | > 30
